Measured values: patent publication US10501421B1, “Substituted benzimidazoles as modulators of Ras signaling” (VANDERBILT UNIVERSITY, priority 2017, dated 2019)
Where a name gives a salt, the structure may show the parent alone.

What was measured:
Son of Sevenless (SOS) = biological target: T1, Son of Sevenless (SOS) (Homo sapiens, UniProt Q07889); test: Binding to SOS, fluorescence polarization anisotropy (FPA) probe displacement; settings: displacement of FITC-conjugated probe (Example 285), affinity calculated from IC50
T1 sequence (Q07889 564-1049 limits assumed): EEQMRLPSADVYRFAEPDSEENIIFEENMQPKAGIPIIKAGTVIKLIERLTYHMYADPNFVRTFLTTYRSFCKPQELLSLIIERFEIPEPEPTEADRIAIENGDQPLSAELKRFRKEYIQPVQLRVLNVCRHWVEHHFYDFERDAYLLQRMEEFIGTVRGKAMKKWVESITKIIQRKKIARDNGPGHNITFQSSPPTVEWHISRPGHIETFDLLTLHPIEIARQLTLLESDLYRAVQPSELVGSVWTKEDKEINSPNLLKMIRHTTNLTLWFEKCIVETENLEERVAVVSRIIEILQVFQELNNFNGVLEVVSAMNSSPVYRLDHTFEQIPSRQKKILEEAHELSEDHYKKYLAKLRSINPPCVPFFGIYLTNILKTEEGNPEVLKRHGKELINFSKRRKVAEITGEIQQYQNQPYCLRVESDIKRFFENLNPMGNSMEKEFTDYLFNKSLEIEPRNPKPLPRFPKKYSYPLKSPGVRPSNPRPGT
Summary of the method: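 Test compounds were titrated against SOS pre-bound to a fluorescein-labelled probe, with anisotropy plotted versus compound concentration. Binding affinities were derived from IC50 values obtained by four-parameter dose-response fitting.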

[1] = biological target: Ras GEF SOS (Son of Sevenless) (Homo sapiens, UniProt Q07889); test: SOS-mediated nucleotide exchange on Ras (BODIPY-GDP fluorescence); format: biochemical; settings: SOS-mediated exchange of BODIPY-GDP for GTP on Ras
Summary of the method: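 Exchange rates were taken from single-exponential fits of the fluorescence time course as BODIPY-GDP on Ras was replaced by GTP. Compound went in first, then GTP and SOS. Mean rates plotted against concentration gave EC50 by four-parameter dose-response fitting.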

Sequence of Ras GEF SOS (Son of Sevenless) (P01112 1-166 partner limits assumed, one chain of several): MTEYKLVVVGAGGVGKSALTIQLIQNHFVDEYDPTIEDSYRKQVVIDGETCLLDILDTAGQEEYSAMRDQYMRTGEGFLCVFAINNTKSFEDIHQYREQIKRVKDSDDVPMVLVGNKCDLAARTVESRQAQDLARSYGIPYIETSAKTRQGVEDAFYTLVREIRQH

Row | SMILES | Ki (Son of Sevenless (SOS)) | EC50 [1]
1 | Cc1cc(N2CCNCC2)c2nc(N3CCNCC3)n(Cc3cc(C)c(F)c(C)c3)c2c1 [Example 190, 1-(4-fluoro-3,5-dimethylbenzyl)-6-methyl-2,4-di(piperazin-1-yl)-1H-benzo[d]imidazole trifluoroacetate] | 500 to 1000 nM | < 1 µM
2 | Cc1cc(N(C)CCN(C)C)c2nc(N3CCNCC3)n(Cc3cc(C)c(F)c(C)c3)c2c1 [Example 191, N^1-(1-(4-fluoro-3,5-dimethylbenzyl)-6-methyl-2-(piperazin-1-yl)-1H-benzo[d]imidazol-4-yl)-N^1,N^2,N^2-trimethylethane-1,2-diamine trifluoroacetate] | 500 to 1000 nM | 1 to 5 µM
3 | CNCCN(C)c1cc(C)cc2c1nc(N1CCNCC1)n2Cc1cc(C)c(F)c(C)c1 [Example 192, N^1-(1-(4-fluoro-3,5-dimethylbenzyl)-6-methyl-2-(piperazin-1-yl)-1H-benzo[d]imidazol-4-yl)-N^1,N^2-dimethylethane-1,2-diamine trifluoroacetate] | 500 to 1000 nM | 1 to 5 µM
4 | Cc1cc(NCCN2CCOCC2)c2nc(N3CCNCC3)n(Cc3cc(C)c(F)c(C)c3)c2c1 [Example 193, 1-(4-fluoro-3,5-dimethylbenzyl)-6-methyl-N-(2-morpholinoethyl)-2-(piperazin-1-yl)-1H-benzo[d]imidazol-4-amine trifluoroacetate] | 500 to 1000 nM | 1 to 5 µM
5 | COCCN1CCN(c2cc(C)cc3c2nc(N2CCNCC2)n3Cc2cc(C)c(F)c(C)c2)CC1 [Example 195, 1-(4-fluoro-3,5-dimethylbenzyl)-4-(4-(2-methoxyethyl)piperazin-1-yl)-6-methyl-2-(piperazin-1-yl)-1H-benzo[d]imidazole trifluoroacetate] | 500 to 1000 nM | 1 to 5 µM
6 | Cc1cc(NCCCCN(C)C)c2nc(N3CCNCC3)n(Cc3cc(C)c(F)c(C)c3)c2c1 [Example 196, N^1-(1-(4-fluoro-3,5-dimethylbenzyl)-6-methyl-2-(piperazin-1-yl)-1H-benzo[d]imidazol-4-yl)-N^4,N^4-dimethylbutane-1,4-diamine trifluoroacetate] | 500 to 1000 nM | 1 to 5 µM
7 | Cc1cc(NCCCN(C)C)c2nc(N3CCNCC3)n(Cc3cc(C)c(F)c(C)c3)c2c1 [Example 197, N^1-(1-(4-fluoro-3,5-dimethylbenzyl)-6-methyl-2-(piperazin-1-yl)-1H-benzo[d]imidazol-4-yl)-N^3,N^3-dimethylpropane-1,3-diamine trifluoroacetate] | 500 to 1000 nM | 1 to 5 µM
8 | Cc1cc(NC[C@H]2CCNC2)c2nc(N3CCNCC3)n(Cc3cc(C)c(F)c(C)c3)c2c1 [Example 198, (S)-1-(4-fluoro-3,5-dimethylbenzyl)-6-methyl-2-(piperazin-1-yl)-N-(pyrrolidin-3-ylmethyl)-1H-benzo[d]imidazol-4-amine trifluoroacetate] | 500 to 1000 nM | 1 to 5 µM
9 | Cc1cc(OCCN2CCN(C)CC2)c2nc(N3CCNCC3)n(Cc3cc(C)c(F)c(C)c3)c2c1 [Example 201, 1-(4-fluoro-3,5-dimethylbenzyl)-6-methyl-4-(2-(4-methylpiperazin-1-yl)ethoxy)-2-(piperazin-1-yl)-1H-benzo[d]imidazole] | 500 to 1000 nM | < 1 µM
10 | Cc1cc(OCCN(C)C)c2nc(N3CCNCC3)n(Cc3cc(C)c(F)c(C)c3)c2c1 [Example 203, 2-((1-(4-fluoro-3,5-dimethylbenzyl)-6-methyl-2-(piperazin-1-yl)-1H-benzo[d]imidazol-4-yl)oxy)-N,N-dimethylethan-1-amine] | 500 to 1000 nM | < 1 µM
11 | Cc1cc(OC2CCOC2)c2nc(N3CCNCC3)n(Cc3cc(C)c(F)c(C)c3)c2c1 (centres unmarked) [Example 204, 1-(4-fluoro-3,5-dimethylbenzyl)-6-methyl-2-(piperazin-1-yl)-4-((tetrahydrofuran-3-yl)oxy)-1H-benzo[d]imidazole] | 1000 to 5000 nM | < 1 µM
12 | Cc1cc(Cn2c(N3CCNCC3)nc3c(OCCN4CCN(C)CC4)cccc32)ccc1F [Example 209, 1-(4-fluoro-3-methylbenzyl)-4-(2-(4-methylpiperazin-1-yl)ethoxy)-2-(piperazin-1-yl)-1H-benzo[d]imidazole] | > 5000 nM | < 1 µM
13 | Cc1cc2c(nc(N3CC(CN)C3)n2Cc2ccc(F)c(C)c2)c(-c2ccccc2F)n1 [Example 216, (1-(1-(4-fluoro-3-methylbenzyl)-4-(2-fluorophenyl)-6-methyl-1H-imidazo[4,5-c]pyridin-2-yl)azetidin-3-yl)methanamine] | 500 to 1000 nM | < 1 µM
14 | Cc1cc2c(nc(N3CCNCC3)n2Cc2ccc(F)c(C)c2)c(-c2ccccc2C(C)C)n1 [Example 219, 1-(4-fluoro-3-methylbenzyl)-4-(2-isopropylphenyl)-6-methyl-2-(piperazin-1-yl)-1H-imidazo[4,5-c]pyridine] | > 5000 nM | 5 to 30 µM
15 | Cc1cc2c(nc(NCCN)n2Cc2ccc(F)c(C)c2)c(-c2ccccc2C)n1 [Example 224, N^1-(1-(4-fluoro-3-methylbenzyl)-6-methyl-4-(o-tolyl)-1H-imidazo[4,5-c]pyridin-2-yl)ethane-1,2-diamine] | > 5000 nM | 5 to 30 µM

The remaining lines, values ahead:

Row | Ki (Son of Sevenless (SOS)) | EC50 [1] | SMILES
16 | 1000 to 5000 nM | < 1 µM | Cc1cc(Cn2c(N3CCNCC3)nc3c(OC4CCN(C)CC4)cccc32)ccc1F [Example 205, 1-(4-fluoro-3-methylbenzyl)-4-((1-methylpiperidin-4-yl)oxy)-2-(piperazin-1-yl)-1H-benzo[d]imidazole]
17 | > 5000 nM | < 1 µM | Cc1cc(Cn2c(N3CCNCC3)nc3c(OC4CCNC4)cccc32)ccc1F (centres unmarked) [Example 206, 1-(4-fluoro-3-methylbenzyl)-2-(piperazin-1-yl)-4-(pyrrolidin-3-yloxy)-1H-benzo[d]imidazole]
18 | 1000 to 5000 nM | < 1 µM | Cc1cc(Cn2c(NCCN)nc3c(OCCN4CCCC4)cccc32)ccc1F [Example 207, N^1-(1-(4-fluoro-3-methylbenzyl)-4-(2-(pyrrolidin-1-yl)ethoxy)-1H-benzo[d]imidazol-2-yl)ethane-1,2-diamine]
19 | > 5000 nM | < 1 µM | Cc1cc(Cn2c(N3CCNCC3)nc3c(OCCN4CCCC4)cccc32)ccc1F [Example 208, 1-(4-fluoro-3-methylbenzyl)-2-(piperazin-1-yl)-4-(2-(pyrrolidin-1-yl)ethoxy)-1H-benzo[d]imidazole]
20 | > 5000 nM | < 1 µM | Cc1cc(Cn2c(N3CCNCC3)nc3c(OCCN(C)C)cccc32)ccc1F [Example 210, 2-((1-(4-fluoro-3-methylbenzyl)-2-(piperazin-1-yl)-1H-benzo[d]imidazol-4-yl)oxy)-N,N-dimethylethan-1-amine]
21 | > 5000 nM | 1 to 5 µM | Cc1cc2c(cc1C)N(Cc1ccc(F)c(Cl)c1)C1=NCCCN12 [Example 213, 10-(3-chloro-4-fluorobenzyl)-7,8-dimethyl-2,3,4,10-tetrahydrobenzo[4,5]imidazo[1,2-a]pyrimidine]
22 | > 5000 nM | 30 to 100 µM | Fc1ccc(CN2C3=NCCCN3c3cc(Cl)ccc32)cc1Cl [Example 214, 7-chloro-10-(3-chloro-4-fluorobenzyl)-2,3,4,10-tetrahydrobenzo[4,5]imidazo[1,2-a]pyrimidine]
23 | > 5000 nM | 1 to 5 µM | Cc1cc2c(nc(N3CCNCC3)n2Cc2ccc(F)c(C)c2)c(-c2ccccc2F)n1 [Example 217, 1-(4-fluoro-3-methylbenzyl)-4-(2-fluorophenyl)-6-methyl-2-(piperazin-1-yl)-1H-imidazo[4,5-c]pyridine]
24 | > 5000 nM | 5 to 30 µM | Cc1cc2c(nc(N3CCNCC3)n2Cc2ccc(F)c(C)c2)c(Cl)n1 [Example 218, 4-chloro-1-(4-fluoro-3-methylbenzyl)-6-methyl-2-(piperazin-1-yl)-1H-imidazo[4,5-c]pyridine]
25 | > 5000 nM | 5 to 30 µM | Cc1cc2c(nc(N3CCNCC3)n2Cc2ccc(F)c(C)c2)c(-c2ccccc2C)n1 [Example 225, 1-(4-fluoro-3-methylbenzyl)-6-methyl-2-(piperazin-1-yl)-4-(o-tolyl)-1H-imidazo[4,5-c]pyridine]
26 | > 5000 nM | 5 to 30 µM | Cc1cc2c(nc(N3CCNCC3)n2Cc2ccc(F)c(C)c2)c(-c2ccncc2)n1 [Example 226, 1-(4-fluoro-3-methylbenzyl)-6-methyl-2-(piperazin-1-yl)-4-(pyridin-4-yl)-1H-imidazo[4,5-c]pyridine]
27 | > 5000 nM | 1 to 5 µM | Cc1cc2c(nc(N3CCNCC3)n2Cc2ccc(F)c(C)c2)c(-c2cccnc2C)n1 [Example 227, 1-(4-fluoro-3-methylbenzyl)-6-methyl-4-(2-methylpyridin-3-yl)-2-(piperazin-1-yl)-1H-imidazo[4,5-c]pyridine]
28 | > 5000 nM | 5 to 30 µM | COc1ccccc1-c1nc(C)cc2c1nc(N1CCNCC1)n2Cc1ccc(F)c(C)c1 [Example 228, 1-(4-fluoro-3-methylbenzyl)-4-(2-methoxyphenyl)-6-methyl-2-(piperazin-1-yl)-1H-imidazo[4,5-c]pyridine]
